This note sets out measurements from patent US8753841B2, “Enzyme that catalyzes a peptide-forming reaction from a carboxy component and an amine component, microbe producing the same, and a method of producing a dipeptide using the enzyme or microbe” (Ajinomoto Co., Inc., priority 2002, dated 2014).

The subject of assay [1] is Empedobacter brevis strain FERM BP-8113 microbial cells. The assay can be described thus: Production of peptide using microbial cells of Empedobacter brevis. The format is cell-based. The settings on record: 1 mL 100 g/L cell suspension + 1 mL buffer with 200 mM carboxy component, 400 mM amino acid, 10 mM EDTA, pH 9.0, 18° C., 2 hours. The method, then:
A 50 mL medium (pH 6.2) containing 5 grams (g) of glucose, 5 g of ammonium sulfate, 1 g of monopotassium phosphate, 3 g of dipotassium phosphate, 0.5 g of magnesium sulfate, 10 g of yeast extract and 10 g of peptone in 1 liter (L) was transferred to a 500 mL Sakaguchi flask and sterilized at 115° C. for 15 minutes.
Microbial cells were collected by centrifuging (10,000 rounds per minute (rpm), 15 minutes) the culture broth obtained in Example 1, followed by suspending them to a concentration of 100 g/L in 100 mM borate buffer (pH 9.0) containing 10 mM EDTA. After respectively adding 1 mL of the suspension to 1 mL each of 100 mM borate buffer solutions (pH 9.0) containing 10 mM EDTA, 200 mM of the following carboxy components, and 400 mM of the following amino acids to make a final volume of 2 mL, the reaction was carried out at 18° C. for 2 hours.

In assay [2] the test system is peptide-forming enzyme from Empedobacter brevis strain FERM BP-8113. The assay can be described thus: Substrate specificity of enzyme (peptide production from carboxy and amine components). The format is biochemical. Conditions: L-amino acid methyl ester hydrochloride 100 mM, 150 mM L-glutamine, pH 9.0, 25° C., 3 hours. An excerpt:
Ester specificity was examined in the case of using L-amino acid ester for the carboxy component. […] HCl represents hydrochloride in Table 4.
Peptide production was examined in the case of using L-alanine methyl ester for the carboxy component and using various L-amino acids for the amine component.
Peptide production was examined in the case of using various types of L-amino acid methyl esters for the carboxy component and using L-glutamine for the amine component. […] Furthermore, Tween-80 was added to the reaction system to a final concentration of 0.1% in the case of using L-Trp-OMe and L-Tyr-OMe.

The subject of assay [3] is Sphingobacterium sp. strain FERM BP-8124 microbial cells. The assay can be described thus: Production of L-alanyl-L-glutamine using microbial cells of Sphingobacterium sp. It counts as cell-based. The settings on record: 0.1 mL 100 g/L cell suspension + 0.1 mL buffer with 200 mM L-alanine methyl ester hydrochloride, 400 mM L-glutamine, pH 9.0, 25° C., 120 minutes. The method, then:
22, 2002). […] 1 ml of this culture broth was then added to the aforementioned medium (50 ml/500 mL Sakaguchi flask) and cultured at 30° C. for 18 hours. Following completion of the culturing, the microbial cells were separated from the culture broth by centrifugation and suspended in 0.1 M borate buffer (pH 9.0) containing 10 mM EDTA at a concentration of 100 g/L as wet microbial cells. […] The resulting 0.2 mL of mixture was allowed to react at 25° C. for 120 minutes. The concentration of L-alanyl-L-glutamine formed at this time was 62 mM.
22, 2002). […] 1 ml of this culture broth was then added to the aforementioned medium (50 ml/500 mL Sakaguchi flask) and cultured at 30° C. for 18 hours. After completion of the culture, the microbial cells were separated from the culture broth by centrifugation and suspended in 0.1 M borate buffer (pH 9.0) containing 10 mM EDTA at a concentration of 100 g/L as wet microbial cells. […] The resulting 0.2 mL of mixture was allowed to react at 25° C. for 120 minutes.

For assay [4], the system named is peptide-forming enzyme from Sphingobacterium sp. strain FERM BP-8124. The experiment in a line: Production of L-alanyl-L-glutamine using SP-Sepharose HP enzyme fraction of Sphingobacterium sp. It counts as biochemical. The settings on record: 10 μl SP-Sepharose HP fraction + 90 μl buffer with 111 mM L-alanine methyl ester hydrochloride, 222 mM L-glutamine, pH 9.0, 25° C., 120 minutes. The method, then:
As a result, 73 mM of L-alanyl-L-glutamine was formed in the enzyme-added lot.

For assay [5], the system named is enzyme derived from Sphingobacterium sp. strain FERM BP-8124. The experiment in a line: Substrate specificity of enzyme derived from Sphingobacterium sp. The settings on record: Table 15-4; carboxy component 100 mM, amine component 150 mM, 0.33 units enzyme, pH 9.0, 25° C., 1.5 hours. It counts as biochemical.
Assay [6] concerns peptide-forming enzyme from Empedobacter brevis strain FERM BP-8113. The assay can be described thus: Substrate specificity of enzyme (peptide production from carboxy and amine components). The format is biochemical. Conditions: L-amino acid amide hydrochloride 100 mM as carboxy component, L-amino acid 150 mM, pH 9.0, 25° C., 3 hours.
For assay [7] the test system is unchanged. The assay can be described thus: Production of L-alanyl-L-glutamine from L-alanine methyl ester and L-glutamine with the Mono S fraction enzyme. Conditions: L-alanine methyl ester hydrochloride 100 mM, 18° C., 2 hours.
Assay [8] in a line: Comparison of ability to catalyze peptide formation with known enzymes. Conditions: enzyme of present invention = 100.0. The format is biochemical. The source says:
The peptide-forming ability of the present enzyme was compared with that of known enzymes. Carboxypeptidase Y described in EP 278787A1 and the thiol endopeptidases (ficin, papain, bromelain, and chymopapain) described in EP 359399B1 were used as the known enzymes, and they were used in the form of purified enzymes (manufactured by Sigma). The enzyme uniformly purified in Example 3 was used as a source of the present enzyme of the present invention. […] As has been described above, the present enzyme was verified to have an extremely high peptide production rate unlike any known enzyme in the prior art. Furthermore, the enzyme of the present invention is a dimer having a molecular weight of about 75,000. In contrast, the molecular weight of the carboxypeptidase Y has been reported to be about 61,000, while the molecular weight of thiol endopeptidase has been reported to be about 23,000 to 36,000. Thus, the L-alanyl-L-glutamine production rate of the enzyme of the present invention as compared to those of the carboxypeptidase Y and the thiol endopeptidase is even greater when the rate is expressed per molecular weight than when it is expressed per unit weight as indicated in the examples.

In assay [9] the test system is peptide-forming enzyme from Empedobacter brevis strain FERM BP-8113. The experiment in a line: Substrate specificity of enzyme (peptide production from carboxy and amine components). The format is biochemical. The arrangement: key: +: those for which production was confirmed but which were unable to be quantified due to the absence of a standard; a trace amount.
[10] abbreviates: oligopeptide production, amount of enzyme 0.2 unit, pH 9.0, 25° C., 3 hours.

Residues, ends and D or L forms follow the SMILES beside them. *: point of attachment. Boc = CC(C)(C)OC(=O)*

Turning to `C[C@H](N)C(=O)N[C@@H](CCC(N)=O)C(=O)O` [L-Ala-L-Gln, L-alanyl-L-glutamine] (H-Ala-Gln-OH), the results for the “Formed peptide” value in [1], in assay [2] and in [6] were 68.0 mM, 74.6 mM and 7.6 mM, respectively. For the same molecule, the “concentration of L-alanyl-L-glutamine formed” value in assay [3] is recorded as 62 mM. Besides, the L-alanyl-L-glutamine formed in [4] is 73 mM. Further, in assay [5], the “Produced peptide” value stood at 0.3 mM. For the same molecule, the “L-Ala-L-Gln” value in [7] (L-glutamine 100 mM) is listed as 68.2 mM; in assay [7] (L-glutamine 110 mM), 72.1 mM; in assay [7] (L-glutamine 120 mM), 73.3 mM; in [7] (L-glutamine 130 mM), 75.1 mM; in [7] (L-glutamine 150 mM) it was 75.5 mM; in assay [7] (L-glutamine 200 mM) it was 82.0 mM.

In the case of Bromelain, in assay [8], the “Ratio of L-Ala-L-Gln production rate per enzyme unit weight” value (shortened to “Ratio … per enzyme unit weight”) was 0.0010. Same read-out and setting: the value for “Chymopapain: thiol endopeptidase described in EP 359399B1, purified enzyme manufactured by Sigma” was 0.0013; that for Ficin was 0.0017. H-Ala-2-Nal-OH: the “Produced peptide (mM)” value in assay [9] (carboxy component 20 mM, amine component 20 mM, 0.1 unit enzyme, 25° C., reaction time 3 hr) is on record as “+”. Regarding H-CHA-Phe-OH, the “Produced peptide (mM)” value in assay [9] (carboxy component 40 mM, amine component 40 mM, 0.1 unit enzyme, 25° C., reaction time 3 hr) is “+”.

For the molecule H-Lys(Boc)-Gln-OH, the “Produced peptide (mM)” value in assay [9] (carboxy component 100 mM, amine component 150 mM, 0.1 unit enzyme, 25° C., reaction time 2 hr) is recorded as “+”. As to L-Ala-Gly-Gly-L-Phe-L-Met, the “Produced peptide (mM)” value in [9] (setting [10]) is given as “+”. Take L-Ala-Gly-L-Phe: the “Produced peptide (mM)” value in [9] (oligopeptide production, amount of enzyme 0.1 unit, pH 9.0, 25° C., 3 hours) is given as “+”.

Take L-Ala-L-Phe-L-Met: the “Produced peptide (mM)” value in assay [9] (setting [10]) is reported as “+”.

B1: Papain: thiol endopeptidase described in EP 359399B1, purified enzyme manufactured by Sigma (protein, UniProt P00784 134-345, looked up)
Papain: IPEYVDWRQKGAVTPVKNQGSCGSCWAFSAVVTIEGIIKIRTGNLNEYSEQELLDCDRRSYGCNGGYPWSALQLVAQYGIHYRNTYPYEGVQRYCRSREKGPYAAKTDGVRQVQPYNEGALLYSIANQPVSVVLEAAGKDFQLYRGGIFVGPCGNKVDHAVAAVGYGPNYILIKNSWGTGWGENGYIRIKRGTGNSYGVCGLYTSSFYPVKN
Turning to B1, in [8], the “Ratio … per enzyme unit weight” value was determined as 0.0021.

B2: Carboxypeptidase Y: known enzyme described in EP 278787A1, purified enzyme manufactured by Sigma (protein, UniProt P00729 112-532, looked up)
Carboxypeptidase Y: KIKDPKILGIDPNVTQYTGYLDVEDEDKHFFFWTFESRNDPAKDPVILWLNGGPGCSSLTGLFFELGPSSIGPDLKPIGNPYSWNSNATVIFLDQPVNVGFSYSGSSGVSNTVAAGKDVYNFLELFFDQFPEYVNKGQDFHIAGESYAGHYIPVFASEILSHKDRNFNLTSVLIGNGLTDPLTQYNYYEPMACGEGGEPSVLPSEECSAMEDSLERCLGLIESCYDSQSVWSCVPATIYCNNAQLAPYQRTGRNVYDIRKDCEGGNLCYPTLQDIDDYLNQDYVKEAVGAEVDHYESCNFDINRNFLFAGDWMKPYHTAVTDLLNQDLPILVYAGDKDFICNWLGNKAWTDVLPWKYDEEFASQKVRNWTASITDEVAGEVKSYKHFTYLRVFNGGHMVPFDVPENALSMVNEWIHGGFSL
Consider B2, for which the “Ratio … per enzyme unit weight” value in assay [8] worked out at 0.0191.
